Assay results taken from patent US20090054392A1, “NAPHTHYLPYRIMIDINE, NAPHTHYLPYRAZINE AND NAPHTHYLPYRIDAZINE ANALOGS AND THEIR USE AS AGONISTS OF THE WNT-BETA-CATENIN CELLULAR MESSAGING SYSTEM” (Wyeth, priority 2007, published 2009).

Test system: Dkk1-LRP5-TCF-Luciferase
Assay: Functional Dkk1-LRP5-TCF-Luciferase Assay in U2OS Cells
Conditions: for fold induction at 2 µM / fold induction at 20 µM / EC50: Homo sapiens, U2OS; for fold induction at 2 µM: read-out: B = TCF ACTIVITY/DMSO CONTROL Fold induction @ 2.0 uM, 2.0 uM compound; for fold induction at 20 µM: read-out: C = TCF ACTIVITY/DMSO CONTROL Fold induction @ 20.0 uM, 20.0 uM compound; for A = MAX FOLD Induction/DMSO CONTROL: maximum fold induction over DMSO control

CN(C)C(=O)N1CCCN(c2nccc(-c3ccc4ccccc4c3)n2)CC1 [N,N-dimethyl-4-[4-(2-naphthyl)pyrimidin-2-yl]-1,4-diazepane-1-carboxamide]
fold induction at 2 µM: 1.2 | fold induction at 20 µM: 2.26 | A = MAX FOLD Induction/DMSO CONTROL: 1.520 fold

NCC1CCN(c2nccc(-c3ccc4ccccc4c3)n2)CC1 [({1-[4-(2-naphthyl)pyrimidin-2-yl]piperidin-4-yl}methyl)amine]
EC50: 1.98 µM | fold induction at 2 µM: 2.23 | fold induction at 20 µM: 0.143 | A = MAX FOLD Induction/DMSO CONTROL: 3.390 fold

O[C@H]1CCCN([C@H]2CCN(c3nccc(-c4ccc5ccccc5c4)n3)C2)C1 [(3S)-1-{(3S)-1-[4-(2-naphthyl)pyrimidin-2-yl]pyrrolidin-3-yl}piperidin-3-ol]
EC50: 0.93 µM

Cc1ccc(S(=O)(=O)N2CC(CNc3nccc(-c4ccc5ccccc5c4)n3)C2)cc1 [N-({1-[(4-methylphenyl)sulfonyl]azetidin-3-yl}methyl)-4-(2-naphthyl)pyrimidin-2-amine]
fold induction at 2 µM: 1.45 | fold induction at 20 µM: 1.2

O=c1[nH]c2ccccc2n1C1CCN(c2nccc(-c3ccc4ccccc4c3)n2)CC1 [1-{1-[4-(2-naphthyl)pyrimidin-2-yl]piperidin-4-yl}-1,3-dihydro-2H-benzimidazol-2-one]
fold induction at 2 µM: 1.03 | fold induction at 20 µM: 0.01

CNC(=O)[C@H]1CCCN1c1nccc(-c2ccc3ccccc3c2)n1 [N-methyl-1-[4-(2-naphthyl)pyrimidin-2-yl]-D-prolinamide]
fold induction at 2 µM: 1.13 | fold induction at 20 µM: 1.32

c1ccc(CCNc2nccc(-c3ccc4ccccc4c3)n2)cc1 [4-(2-naphthyl)-N-(2-phenylethyl)pyrimidin-2-amine]
fold induction at 2 µM: 1.91

c1ccc2cc(-c3ccnc(N4CC[C@H](N5CCNCC5)C4)n3)ccc2c1 [4-(2-naphthyl)-2-[(3S)-3-piperazin-1-ylpyrrolidin-1-yl]pyrimidine]
EC50: 1.1 µM | fold induction at 2 µM: 6.16 | A = MAX FOLD Induction/DMSO CONTROL: 7.520 fold

O=C1N[C@H](C2CCN(c3nccc(-c4ccc5ccccc5c4)n3)CC2)CO1 [(4R)-4-{1-[4-(2-naphthyl)pyrimidin-2-yl]piperidin-4-yl}-1,3-oxazolidin-2-one]
fold induction at 2 µM: 1.4 | fold induction at 20 µM: 0.01

CN(C)[C@H]1CCN([C@@H]2CCN(c3nccc(-c4ccc5ccccc5c4)n3)C2)C1 [(3S,3′R)-N,N-dimethyl-1′-[4-(2-naphthyl)pyrimidin-2-yl]-1,3′-bipyrrolidin-3-amine]
EC50: 1.11 µM | fold induction at 2 µM: 2.64 | A = MAX FOLD Induction/DMSO CONTROL: 3.175 fold

CN(CCCO)[C@@H]1CCN(c2nccc(-c3ccc4ccccc4c3)n2)C1 [3-(methyl{(3R)-1-[4-(2-naphthyl)pyrimidin-2-yl]pyrrolidin-3-yl}amino)propan-1-ol]
fold induction at 20 µM: 3.3

O=C1CCCCN1C[C@H]1CCN(c2nccc(-c3ccc4ccccc4c3)n2)C1 [1-({(3S)-1-[4-(2-naphthyl)pyrimidin-2-yl]pyrrolidin-3-yl}methyl)piperidin-2-one]
fold induction at 2 µM: 1.07 | fold induction at 20 µM: 2.45 | A = MAX FOLD Induction/DMSO CONTROL: 2.000 fold

NC(=O)N[C@@H]1CCN(c2nccc(-c3ccc4ccccc4c3)n2)C1 [N-{(3R)-1-[4-(2-naphthyl)pyrimidin-2-yl]pyrrolidin-3-yl}urea]
EC50: 4.3 µM | fold induction at 2 µM: 2.09 | fold induction at 20 µM: 1.63 | A = MAX FOLD Induction/DMSO CONTROL: 1.550 fold

CCN(CCO)[C@H]1CCN(c2nccc(-c3ccc4ccccc4c3)n2)C1 [2-(ethyl{(3S)-1-[4-(2-naphthyl)pyrimidin-2-yl]pyrrolidin-3-yl}amino)ethanol]
EC50: 3.89 µM | fold induction at 2 µM: 1.42 | fold induction at 20 µM: 5.58 | A = MAX FOLD Induction/DMSO CONTROL: 6.695 fold

CCOC(=O)CC1CCN(c2nccc(-c3ccc4ccccc4c3)n2)CC1 [ethyl {1-[4-(2-naphthyl)pyrimidin-2-yl]piperidin-4-yl}acetate]
fold induction at 2 µM: 1.26 | fold induction at 20 µM: 1.06

CC(C)(C)OC(=O)NC1CCCC(Nc2nccc(-c3ccc4ccccc4c3)n2)C1 (stereo not drawn) [tert-butyl (3-{[4-(2-naphthyl)pyrimidin-2-yl]amino}cyclohexyl)carbamate]
fold induction at 2 µM: 1.07 | fold induction at 20 µM: 0.3

CC(C)Nc1nccc(-c2ccc3ccccc3c2)n1 [N-isopropyl-4-(2-naphthyl)pyrimidin-2-amine]
fold induction at 2 µM: 1.64

CNc1nccc(-c2ccc3ccccc3c2)n1 [N-methyl-4-(2-naphthyl)pyrimidin-2-amine]
fold induction at 2 µM: 1.34

CS(=O)(=O)N[C@@H]1CCN(c2nccc(-c3ccc4ccccc4c3)n2)C1 [N-{(3R)-1-[4-(2-naphthyl)pyrimidin-2-yl]pyrrolidin-3-yl}methanesulfonamide]
fold induction at 2 µM: 1.26 | fold induction at 20 µM: 0.82

c1ccc2cc(-c3ccnc(NC4CCCC4)n3)ccc2c1 [N-cyclopentyl-4-(2-naphthyl)pyrimidin-2-amine]
fold induction at 2 µM: 1.95 | fold induction at 20 µM: 0.83

CN(c1nccc(-c2ccc3ccccc3c2)n1)C1CCN(CCOC(c2ccccc2)(c2ccccc2)c2ccccc2)CC1 [N-methyl-4-(2-naphthyl)-N-{1-[2-(trityloxy)ethyl]piperidin-4-yl}pyrimidin-2-amine]
fold induction at 2 µM: 1.14 | fold induction at 20 µM: 1.02

N#Cc1ccc(C(=O)N[C@@H]2CCN(c3nccc(-c4ccc5ccccc5c4)n3)C2)cc1 [4-cyano-N-{(3R)-1-[4-(2-naphthyl)pyrimidin-2-yl]pyrrolidin-3-yl}benzamide]
fold induction at 20 µM: 1.29

CC1(C)OC(=O)N[C@@H]1C1CCN(c2nccc(-c3ccc4ccccc4c3)n2)CC1 [(4R)-5,5-dimethyl-4-{1-[4-(2-naphthyl)pyrimidin-2-yl]piperidin-4-yl}-1,3-oxazolidin-2-one]
fold induction at 2 µM: 1.98 | fold induction at 20 µM: 1.39 | A = MAX FOLD Induction/DMSO CONTROL: 1.585 fold

NC1CCCN(c2nccc(-c3ccc4ccccc4c3)n2)CC1 (stereo not drawn) [1-[4-(2-naphthyl)pyrimidin-2-yl]azepan-4-amine]
fold induction at 2 µM: 1.95

O=C1CN([C@@H]2CCN(c3nccc(-c4ccc5ccccc5c4)n3)C2)CCN1 [4-{(3R)-1-[4-(2-naphthyl)pyrimidin-2-yl]pyrrolidin-3-yl}piperazin-2-one]
EC50: 5.74 µM | fold induction at 2 µM: 1.25 | fold induction at 20 µM: 2.33 | A = MAX FOLD Induction/DMSO CONTROL: 2.874 fold

Cc1ccc(S(=O)(=O)N2CC[C@H](Nc3nccc(-c4ccc5ccccc5c4)n3)C2)cc1 [N-{(3S)-1-[(4-methylphenyl)sulfonyl]pyrrolidin-3-yl}-4-(2-naphthyl)pyrimidin-2-amine]
fold induction at 2 µM: 1.22 | fold induction at 20 µM: 1.01

CC(C)CNc1nccc(-c2ccc3ccccc3c2)n1 [N-isobutyl-4-(2-naphthyl)pyrimidin-2-amine]
fold induction at 2 µM: 1.77

O[C@@H]1CCCN([C@@H]2CCN(c3nccc(-c4ccc5ccccc5c4)n3)C2)C1 [(3R)-1-{(3R)-1-[4-(2-naphthyl)pyrimidin-2-yl]pyrrolidin-3-yl}piperidin-3-ol]
EC50: 2.2 µM

CC(=O)N1CCC(Nc2nccc(-c3ccc4ccccc4c3)n2)CC1 [N-(1-acetylpiperidin-4-yl)-4-(2-naphthyl)pyrimidin-2-amine]
EC50: 5.5 µM | fold induction at 2 µM: 1.09 | fold induction at 20 µM: 2.53 | A = MAX FOLD Induction/DMSO CONTROL: 2.428 fold

O=C(N1CCCC1)N1CCC(Nc2nccc(-c3ccc4ccccc4c3)n2)CC1 [4-(2-naphthyl)-N-[1-(pyrrolidin-1-ylcarbonyl)piperidin-4-yl]pyrimidin-2-amine]
fold induction at 2 µM: 1.06 | fold induction at 20 µM: 0.96

CCNC(=O)N[C@H]1CCN(c2nccc(-c3ccc4ccccc4c3)n2)C1 [N-ethyl-N′-{(3S)-1-[4-(2-naphthyl)pyrimidin-2-yl]pyrrolidin-3-yl}urea]
fold induction at 2 µM: 1.03 | fold induction at 20 µM: 0.6

CCNC(=O)NCC1CCN(c2nccc(-c3ccc4ccccc4c3)n2)CC1 [N-ethyl-N′-({1-[4-(2-naphthyl)pyrimidin-2-yl]piperidin-4-yl}methyl)urea]
fold induction at 2 µM: 1.7 | fold induction at 20 µM: 1.34

N=C(N)N1CCN(c2nccc(-c3ccc4ccccc4c3)n2)CC1 [4-[4-(2-naphthyl)pyrimidin-2-yl]piperazine-1-carboximidamide]
fold induction at 2 µM: 1.1 | fold induction at 20 µM: 0.05

COC(=O)NCC1CN(c2nccc(-c3ccc4ccccc4c3)n2)C1 [methyl ({1-[4-(2-naphthyl)pyrimidin-2-yl]azetidin-3-yl}methyl)carbamate]
fold induction at 2 µM: 1.28 | fold induction at 20 µM: 1.08

CN[C@@H]1CCN(c2nccc(-c3ccc4ccccc4c3)n2)C1 [(3R)—N-methyl-1-[4-(2-naphthyl)pyrimidin-2-yl]pyrrolidin-3-amine]
fold induction at 2 µM: 1.2

CC(C)(C)OC(=O)NC1CCN(c2nccc(-c3ccc4ccccc4c3)n2)CC1 [tert-butyl {1-[4-(2-naphthyl)pyrimidin-2-yl]piperidin-4-yl}carbamate]
fold induction at 2 µM: 0.93 | fold induction at 20 µM: 1.91

CC(C)(C)Nc1nccc(-c2ccc3ccccc3c2)n1 [N-(tert-butyl)-4-(2-naphthyl)pyrimidin-2-amine]
fold induction at 2 µM: 1.75

NCC1CCN(c2nccc(-c3ccc4cc(-c5cccs5)ccc4c3)n2)CC1 [1-(1-{4-[6-(2-thienyl)-2-naphthyl]pyrimidin-2-yl}piperidin-4-yl)methanamine]
fold induction at 2 µM: 1.21 | fold induction at 20 µM: 0.03

CN(C)c1cccc2c(S(=O)(=O)N[C@H]3CC[C@H](Nc4nccc(-c5ccc6ccccc6c5)n4)CC3)cccc12 [5-(dimethylamino)-N-(trans-4-{[4-(2-naphthyl)pyrimidin-2-yl]amino}cyclohexyl)naphthalene-1-sulfonamide]
fold induction at 2 µM: 1.43 | fold induction at 20 µM: 1.34

CN(C)[C@@H]1CCN(C[C@@H]2CCN(c3nccc(-c4ccc5ccccc5c4)n3)C2)C1 [(3R)—N,N-dimethyl-1-({(3S)-1-[4-(2-naphthyl)pyrimidin-2-yl]pyrrolidin-3-yl}methyl)pyrrolidin-3-amine]
fold induction at 2 µM: 1.53 | fold induction at 20 µM: 0.03
